Measured values from patent US10052381B2, “Classifiers of NF-κB pathway activation, devices, and methods of use thereof” (Emory University, priority 2012, dated 2018).

Columns and labels:
Format in all cases: cell-based
[1] = tested on: p105 gene classifier (canonical NF-κB pathway); experiment: nCounter gene expression of the p105 classifier in DLBCL cell lines after drug treatment
Experimental: (§1) FIG. 5A illustrates that rituximab increases the apoptotic effect of doxorubicin when it is associated with suppression of p105 and induction of p100 classifier gene expression. Boxplot of p100 and p105 gene list illustrating the changes in gene expression in cells treated with doxorubicin ([…]) or rituximab ([…]). Cells were treated for 24 hours and the percent of live cells was measured using an ImageXpress 5000A Automated Acquisition and Analysis System (Molecular Devices), quantitating for Yo-pro-1 or PI-negative cells.
(§2) Given the capacity of the p105 classifier to predict a better response to RCHOP, the extent to which both classifiers were targeted by rituximab was investigated. In this investigation, the pathway dysregulation in a series of DLBCL cell lines and their changes in gene expression produced by DNA damaging agent (doxorubicin) and rituximab was measured. Based on their known baseline pattern of NF-κB activation, cell lines with enhanced (OCI-LY3, OCI-LY10) and suppressed (OCI-LY19 and OCI-LY2) NF-κB activation were selected for further testing (FIG. 5A).
(§3) nCounter Analysis System technology was developed by NanoString Technologies. In brief, nCounter™ assay was performed using 100 ng of total RNA or 2 μL of tissue lysate per replicate. The nCounter CodeSet for these studies contained probe pairs for 47 test and 3 control genes. All 47 genes and controls (n=3) were assayed simultaneously in multiplexed reactions. […] Subsequently, supervised complete linkage agglomerative hierarchical clustering analysis was performed.

[2] = tested on: p100 gene classifier (noncanonical NF-κB pathway); experiment: nCounter gene expression of the p100 classifier in DLBCL cell lines after drug treatment
Experimental: as §1, §2, §3

[3] = tested on: DLBCL cell lines OCI-LY3, OCI-LY10, OCI-LY19 and OCI-LY2; experiment: Apoptosis studies (Yo-pro-1 / PI negative live cells, ImageXpress); conditions: rituximab alone, titrating doses, 24 hours; all four cell lines
Experimental: To assess the consequence of rituximab's functional effects, the degree of apoptosis produced after treating all four cell lines with titrating doses of doxorubicin and rituximab was measured.
For apoptosis studies, 10^4 cells were treated with titrating doses of doxorubicin (titrating doses: […], Sigma) or rituximab (titrating doses: 1.5, 2.5, 5, 10 and 20 mg/mL, Biogen Idec Inc). Twenty four hours later cells were stained with Yo-pro-1 iodide and propidium Iodide (PI, both from Invitrogen). Live cells were measured using an ImageXpress 5000A Automated Acquisition and Analysis System (Molecular Devices), quantitating for Yo-pro-1 iodide and PI negative cells.

[4] = doxorubicin alone, OCI-LY3, OCI-LY10 cells
[5] = rituximab with doxorubicin, NF-κB activated cell lines (OCI-LY3, OCI-LY10)

Molecule	gene expression of p105 target genes [1, 4]	gene expression of p100 target genes [2, 4]	change in expression of p105 classifier ([1]; OCI-LY2 and OCI-LY19 cells)	effect on doxorubicin's induction of p105 gene classifier [1, 5]	change in expression of p100 classifier ([2]; OCI-LY2 and OCI-LY19 cells)	effect on doxorubicin's induction of p100 gene classifier [2, 5]	degree of apoptosis [3]
COc1cccc2c1C(=O)c1c(O)c3c(c(O)c1C2=O)C[C@@](O)(C(=O)CO)C[C@@H]3O[C@H]1C[C@H](N)[C@H](O)[C@H](C)O1 [doxorubicin]	moderately induced	moderately induced	–	–	–	–	–
rituximab	–	–	minimally changed	suppressed doxorubicin's induction	minimally changed	enhanced the induction	did not induce significant apoptosis beyond background levels
